Data published in patent US9902725B2, “Heterocyclic derivatives as RORgamma modulators” (GENFIT, priority 2014, dated 2018).

Each compound was assayed against T1, RORγt ligand-binding domain (RORγt-LBD) (Homo sapiens, UniProt P51449) (assay: Time-resolved FRET (TR-FRET) RORγt coactivator assay). Conditions: GST-RORγ-LBD, biotinylated RIP140 peptide, coactivator displacement.
T1 construct: 20 nM recombinantly expressed RORγ-LBD fused to GST
T1 sequence (P51449 269-508 limits assumed): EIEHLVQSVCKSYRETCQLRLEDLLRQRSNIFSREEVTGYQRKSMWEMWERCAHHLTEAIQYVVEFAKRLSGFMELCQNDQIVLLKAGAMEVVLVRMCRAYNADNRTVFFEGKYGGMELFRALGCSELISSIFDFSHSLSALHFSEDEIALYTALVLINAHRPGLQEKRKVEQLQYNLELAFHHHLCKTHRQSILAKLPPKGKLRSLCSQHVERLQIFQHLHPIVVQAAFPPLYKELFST
Format: biochemical

Row | IC50 [µM] | Compound
1 | 1 to 10 | O=C(O)CCc1c[nH]c2ccc(CC(=O)NC(c3ccccc3)c3ccccc3N3CCOCC3)cc12 (stereo not drawn) [compound 196, 3-{5-[({[2-(morpholin-4-yl)phenyl](phenyl)methyl}carbamoyl)methyl]-1H-indol-3-yl}propanoic acid]
2 | < 1 | CNc1cc(C)ccc1C(NC(=O)Cc1ccc2[nH]cc(CCC(=O)O)c2c1)c1ccccc1 (stereo not drawn) [compound 204, 3-{5-[({[4-methyl-2-(methylamino)phenyl](phenyl)methyl}carbamoyl)methyl]-1H-indol-3-yl}propanoic acid]
3 | 1 to 10 | O=C(Cc1ccc2[nH]cc(C(=O)O)c2c1)NC(c1ccccc1)c1ccccc1N1CCCCC1 (stereo not drawn) [compound 206, 1-(2-{[2-(3-carboxy-1H-indol-5-yl)acetamido](phenyl)methyl}phenyl)piperidin-1-ium chloride]
4 | 1 to 10 | Cc1ccc(C(NC(=O)Cc2ccc3[nH]cc(C(=O)O)c3c2)c2ccccc2)c(Br)c1 (stereo not drawn) [compound 207, 5-({[(2-bromo-4-methylphenyl)(phenyl)methyl]carbamoyl}methyl)-1H-indole-3-carboxylic acid]
5 | < 1 | O=C(O)CCC(=O)c1c[nH]c2ccc(CC(=O)NC(c3ccccc3)c3ccccc3N3CCCCC3)cc12 (stereo not drawn) [compound 213, 4-oxo-4-{5-[({phenyl[2-(piperidin-1-yl)phenyl]methyl}carbamoyl)methyl]-1H-indol-3-yl}butanoic acid]
6 | < 1 | O=C(O)CCCC(=O)c1c[nH]c2ccc(CC(=O)NC(c3ccccc3)c3ccccc3N3CCCCC3)cc12 (stereo not drawn) [compound 215, 5-oxo-5-{5-[({phenyl[2-(piperidin-1-yl)phenyl]methyl}carbamoyl)methyl]-1H-indol-3-yl}pentanoic acid]
7 | 1 to 10 | Cc1ccc(C(NC(=O)Cc2ccc3[nH]cc(CCC(=O)O)c3c2)c2ccccc2)c2[nH]ccc12 (stereo not drawn) [compound 229, 3-[5-({[(4-methyl-1H-indol-7-yl)(phenyl)methyl]carbamoyl}methyl)-1H-indol-3-yl]propanoic acid]
8 | 1 to 10 | N=C(N)NC(=O)CCc1c[nH]c2ccc(CC(=O)NC(c3ccccc3)c3ccccc3N3CCCCC3)cc12 (stereo not drawn) [compound 235, 1-{2-[(2-{3-[2-(carbamimidoylcarbamoyl)ethyl]-1H-indol-5-yl}acetamido)(phenyl)methyl]phenyl}piperidin-1-ium chloride]
9 | < 1 | O=C(O)CCc1n[nH]c2ccc(CC(=O)NC(c3ccccc3)c3ccccc3N3CCCCC3)cc12 (stereo not drawn) [compound 237, 3-{5-[({phenyl[2-(piperidin-1-yl)phenyl]methyl}carbamoyl)methyl]-1H-indazol-3-yl}propanoic acid]
10 | < 1 | CC(C)CC(NC(=O)Cc1ccc2[nH]cc(CCC(=O)O)c2c1)c1ccccc1OC(C)C (stereo not drawn) [compound 241, 3-{5-[({3-methyl-1-[2-(propan-2-yloxy)phenyl]butyl}carbamoyl)methyl]-1H-indol-3-yl}propanoic acid]

Further lines, the compound ahead of its results:

Row | Compound | IC50 [µM]
11 | Cc1ccc(C(NC(=O)Cc2ccc3[nH]cc(CCC(=O)O)c3c2)c2ccc(C)s2)c(C)c1 (stereo not drawn) [compound 101, 3-[5-({[(2,4-dimethylphenyl)(5-methylthiophen-2-yl)methyl]carbamoyl}methyl)-1H-indol-3-yl]propanoic acid] | < 1
12 | Cc1ccc(C(NC(=O)Cc2ccc3[nH]cc(CCC(=O)O)c3c2)c2ccccc2)c(N2CCN(C)CC2)c1 (stereo not drawn) [compound 103, 3-{5-[({[4-methyl-2-(4-methylpiperazin-1-yl)phenyl](phenyl)methyl}carbamoyl)methyl]-1H-indol-3-yl}propanoic acid] | 1 to 10
13 | O=C(O)CCc1c[nH]c2ccc(CC(=O)NC(c3ccccc3)c3ccccc3-n3cccc3)cc12 (stereo not drawn) [compound 107, 3-{5-[({phenyl[2-(1H-pyrrol-1-yl)phenyl]methyl}carbamoyl)methyl]-1H-indol-3-yl}propanoic acid] | < 1
14 | CC(C)NC(=O)CCc1c[nH]c2ccc(CC(=O)NC(c3ccccc3)c3ccccc3N3CCCCC3)cc12 (stereo not drawn) [compound 118, 3-{5-[({phenyl[2-(piperidin-1-yl)phenyl]methyl}carbamoyl)methyl]-1H-indol-3-yl}-N-(propan-2-yl)propanamide] | < 1
15 | CN(C)Cc1ccccc1C(NC(=O)Cc1ccc2[nH]cc(CCC(=O)OC(C)(C)C)c2c1)c1ccccc1 (stereo not drawn) [compound 121, tert-butyl 3-(5-{[({2-[(dimethylamino)methyl]phenyl}(phenyl)methyl)carbamoyl]methyl}-1H-indol-3-yl)propanoate] | 1 to 10
16 | O=C(O)CCc1c[nH]c2ccc(CC(=O)NC(c3ccccc3)c3ccccc3N3CCCC(O)C3)cc12 (stereo not drawn) [compound 124, 3-{5-[({[2-(3-hydroxypiperidin-1-yl)phenyl](phenyl)methyl}carbamoyl)methyl]-1H-indol-3-yl}propanoic acid] | 1 to 10
17 | O=C(O)CCc1c[nH]c2ccc(CC(=O)NC(c3ccccc3)c3ccccc3N3CC=CCC3)cc12 (stereo not drawn) [compound 128, 3-{5-[({phenyl[2-(1,2,3,6-tetrahydropyridin-1-yl)phenyl]methyl}carbamoyl)methyl]-1H-indol-3-yl}propanoic acid] | < 1
18 | O=C(O)CCc1c[nH]c2ccc(CC(=O)NC3(c4ccccc4N4CCCC4)CCCC3)cc12 [compound 130, 3-{5-[({1-[2-(pyrrolidin-1-yl)phenyl]cyclopentyl}carbamoyl)methyl]-1H-indol-3-yl}propanoic acid] | < 1
19 | Cc1ccc(C(NC(=O)Cc2ccc3[nH]cc(CCC(=O)O)c3c2)c2ncccn2)c(N2CCCCC2)c1 (stereo not drawn) [compound 132, 3-{5-[({[4-methyl-2-(piperidin-1-yl)phenyl](pyrimidin-2-yl)methyl}carbamoyl)methyl]-1H-indol-3-yl}propanoic acid] | < 1
20 | Cc1ccc(C(CC(C)C)NC(=O)Cc2ccc3[nH]cc(CCC(=O)O)c3c2)c(N(C)C)c1 (stereo not drawn) [compound 134, 3-{5-[({1-[2-(dimethylamino)-4-methylphenyl]-3-methylbutyl}carbamoyl)methyl]-1H-indol-3-yl}propanoic acid] | < 1
21 | Cc1cnc(C(NC(=O)Cc2ccc3[nH]cc(CCC(=O)O)c3c2)c2ccccc2N2CCCCC2)s1 (stereo not drawn) [compound 154, 3-[5-({[(5-methyl-1,3-thiazol-2-yl)[2-(piperidin-1-yl)phenyl]methyl]carbamoyl}methyl)-1H-indol-3-yl]propanoic acid] | < 1
22 | Cc1ncc(C(NC(=O)Cc2ccc3[nH]cc(CCC(=O)O)c3c2)c2ccccc2N2CCCCC2)s1 (stereo not drawn) [compound 156, 3-[5-({[(2-methyl-1,3-thiazol-5-yl)[2-(piperidin-1-yl)phenyl]methyl]carbamoyl}methyl)-1H-indol-3-yl]propanoic acid] | 1 to 10
23 | Cc1ccc(C(NC(=O)Cc2ccc3[nH]cc(CCC(=O)O)c3c2)C2CC2)c2ccccc12 (stereo not drawn) [compound 164, 3-[5-({[cyclopropyl(4-methylnaphthalen-1-yl)methyl]carbamoyl}methyl)-1H-indol-3-yl]propanoic acid] | < 1
24 | O=C(O)Cc1c[nH]c2ccc(CC(=O)NC(c3ccccc3)c3cc(Cl)ccc3N3CCCCC3)cc12 (stereo not drawn) [compound 166, 2-{5-[({[5-chloro-2-(piperidin-1-yl)phenyl](phenyl)methyl}carbamoyl)methyl]-1H-indol-3-yl}acetic acid] | 1 to 10
25 | O=C(O)CCc1c[nH]c2ccc(CC(=O)NC(c3ccccc3)c3cccc4cc[nH]c34)cc12 (stereo not drawn) [compound 168, 3-[5-({[1H-indol-7-yl(phenyl)methyl]carbamoyl}methyl)-1H-indol-3-yl]propanoic acid] | 1 to 10
26 | Cn1ccc2cccc(C(NC(=O)Cc3ccc4[nH]cc(CCC(=O)O)c4c3)c3ccccc3)c21 (stereo not drawn) [compound 170, 3-[5-({[(1-methyl-1H-indol-7-yl)(phenyl)methyl]carbamoyl}methyl)-1H-indol-3-yl]propanoic acid] | < 1
27 | Cc1cccc(CC(NC(=O)Cc2ccc3[nH]cc(CCC(=O)O)c3c2)c2ccccc2N2CCCCC2)c1 (stereo not drawn) [compound 176, 3-[5-({[2-(3-methylphenyl)-1-[2-(piperidin-1-yl)phenyl]ethyl]carbamoyl}methyl)-1H-indol-3-yl]propanoic acid] | 1 to 10
28 | CC(C)CC(NC(=O)Nc1cnc2[nH]cc(CCC(=O)O)c2c1)c1ccccc1N1CCCCC1 (stereo not drawn) [compound 178, 3-{5-[({3-methyl-1-[2-(piperidin-1-yl)phenyl]butyl}carbamoyl)amino]-1H-pyrrolo[2,3-b]pyridin-3-yl}propanoic acid] | 10 to 30
29 | O=C(O)CCc1c[nH]c2ccc(CC(=O)NC(c3ccccc3)c3ccccc3N3CCC(F)(F)CC3)cc12 (stereo not drawn) [compound 180, 3-{5-[({[2-(4,4-difluoropiperidin-1-yl)phenyl](phenyl)methyl}carbamoyl)methyl]-1H-indol-3-yl}propanoic acid] | 1 to 10
30 | CC(C)CC(NC(=O)Cc1ccc2[nH]cc(CCC(=O)O)c2c1)c1ccc(Br)cc1N1CCCC1 (stereo not drawn) [compound 182, 3-{5-[({1-[4-bromo-2-(pyrrolidin-1-yl)phenyl]-3-methylbutyl}carbamoyl)methyl]-1H-indol-3-yl}propanoic acid] | < 1
31 | Cc1ccc(C(NC(=O)Cc2ccc3[nH]cc(CCC(=O)O)c3c2)c2ccccc2)c(N)c1 (stereo not drawn) [compound 184, 3-[5-({[(2-amino-4-methylphenyl)(phenyl)methyl]carbamoyl}methyl)-1H-indol-3-yl]propanoic acid] | 1 to 10
32 | O=C(O)CCc1c[nH]c2ccc(CC(=O)NC(CC3CCOCC3)c3ccccc3N3CCCCC3)cc12 (stereo not drawn) [compound 190, 3-[5-({[2-(oxan-4-yl)-1-[2-(piperidin-1-yl)phenyl]ethyl]carbamoyl}methyl)-1H-indol-3-yl]propanoic acid] | < 1
33 | CC(C)CC(NC(=O)Cc1ccc2[nH]cc(CC(=O)O)c2c1)c1ccccc1N1CCCCC1 (stereo not drawn) [compound 194, 2-{5-[({3-methyl-1-[2-(piperidin-1-yl)phenyl]butyl}carbamoyl)methyl]-1H-indol-3-yl}acetic acid] | 1 to 10
